What is called IC50 is the concentration at which inhibition is half-maximal.

Data set [1] is described as follows: Gravimetric vapour sorption (GVS) analysis. As to conditions: 25° C., mass change between 20% and 80% RH in first adsorption scan; mass change larger then 0.2% and smaller then 2%. The class given is physicochemical. As for the experimental part: Gravimetric Vapour Sorption (GVS) Analysis
Measurements were performed on a multi sample instrument SPS-100n (Projekt Messtechnik, Ulm, Germany) operated in stepping mode at 25° C. The sample was allowed to equilibrate at 40% RH before starting a pre-defined humidity program (40-0-95-0-95-40% RH, steps of 5% ΔRH and with a maximal equilibration time of 24 hours per step were applied. About 20 to 30 mg of each sample was used. The hygroscopic classification is done according to the European Pharmacopeia Technical Guide (1999, page 86), e.g., slightly hygroscopic: increase in mass is less than 2% and equal to or greater than 0.2% mass/mass; hygroscopic: increase in mass is less than 15% and equal to or greater than 2% mass/mass. The mass change between 20% relative humidity and 80% relative humidity in the first adsorption scan is considered.

Data set [2] concerns eosinophils (PGD2-induced shape change). The experiment in a line: Eosinophil shape change assay with human plasma. The class given is cell-based. As to conditions: 50% human plasma, PGD2 100 nM activation, read-out: Antagonistic activity IC50. As for the experimental part:
Eosinophil Shape Change Assay with Human Plasma After obtaining informed consent, blood samples were drawn by venipuncture according to the protocol approved by the ethics committee of Basel, Switzerland. Polymorphonuclear leukocytes (containing eosinophils, basophils and neutrophils) were isolated using the Polymorphprep™ method (Axis-Shield). In brief, anticoagulated whole blood was layered onto a Polymorphprep gradient (density 1.113 g/ml) and centrifuged at 500 g for 30 min. The polymorphonuclear cell fraction was harvested and depleted for erythrocytes by hypotonic saline lysis. […]
Immediately after fixation with paraformaldehyde, the samples were analyzed by FACSCanto flow cytometer (BD Biosciences) and target cells were identified by their forward-scatter (FSC) and side-scatter (SSC) characteristics. […] Shape change responses, indicative of eosinophil activation, were quantified as the percent of cells with an increased forward-scatter.

In data set [3] the test system is primary cultured rat hepatocytes. Nature of the data set: In vitro cytotoxicity in primary cultured rat hepatocytes. The format is cell-based. As to conditions: for NoEC (no effect concentration) / LCC (lowest cytotoxic concentration): 24 h treatment, highest test concentration 300 μM; for NoEC (no effect concentration): morphology and LDH leakage; for LCC (lowest cytotoxic concentration): morphology grading ≥2 or ≥2-fold increase in LDH leakage. The source says: In Vitro Cytotoxicity in Primary Cultured Rat Hepatocytes
Adult male Wistar rats were narcotized with sodium pentobarbital and hepatocytes were isolated according to a standard procedure, i.e. by in situ perfusion of the liver with a collagenase solution. The viability of the purified hepatocytes, checked by the trypan blue dye exclusion method was greater than 85%. The isolated hepatocytes were resuspended in standard Williams Medium E, without phenol red, supplemented (WME supp.) with transferrin (100 μg/ml), triiodothyronine (10 μg/ml), gentamicin (50 μg/ml), hydrocortison hemisuccinate (13.36 μg/ml), glucagon (5 μg/ml), HEPES (10 mM), inosin (10 μg/ml), insulin (10 μg/ml), streptomycin (100 μg/ml) and penicillin (100 U/ml) and 10% fetal bovine serum (FBS). The cells were plated in collagen-coated 24-well plates at an initial density of 2×10^5 cells/well. After 4 h for attachment to the culture-plates, the medium was aspirated and replaced by fresh WME supp. without FBS containing the test compounds and incubated for 24 h at 37° C. in a […] and 5% CO2 atmosphere. For each experiment, i.e., with each batch of hepatocytes, treatments with the test compounds were done in quadriplicate. Quadriplicate controls (treatment with the vehicle only) were also present on each culture plate.
Stock solutions of the test compounds were prepared in DMSO a few hours before treatment start. Appropriate dilutions of these stock solutions were added to the culture media just prior to the treatment in order to give final concentrations of 0, 3, 10, 30, 100 and 300 μM. The final concentration of the vehicle DMSO was 1% (v/v).
The morphology of the hepatocyte monolayers was monitored by light microscopy after 24 hours of exposure to the test compounds. Treatment related effects are described according to the following grading: • 0 No morphological alterations observed upon treatment when compared to the control cultures • 1-3 Treatment resulting in any morphological changes, e.g. intracellular granulation, vacuolization or cell death. Depending on the severity, these changes were regarded as slight (1), moderate (2) or strong (3). • K Treatment resulting in 100% dead cells and/or the complete detachment of the monolayer yielding a clear cell-free dish.
After 24 h treatment of the hepatocyte cultures, aliquots of culture medium were carefully collected and used for the analysis of lactate dehydrogenase (LDH) activity by spectrophotometry using the LDH cytotoxicity detection kit from Clontech (cat No. 630117, Mountain View, Calif., USA). For each experiment, additional cultures were used for the determination of total intracellular LDH activity at treatment start. For this purpose, 4 wells of cell culture per experiment were washed with cold saline before treatment start, sonicated in fresh medium and the homogenate was analyzed for total LDH activity. Enzyme activities in the culture media were assessed and expressed as percentage of the total activity present in the cultured hepatocytes at the beginning of the treatments.
The lowest cytotoxic concentration (LCC) and the no effect concentration (NoEC) are given for each compound, based on cell morphology and LDH leakage after 24 h treatment. LCC is defined as the lowest concentration of the test compound leading to a clear effect on the cultured rat hepatocytes (morphology grading ≥2 or ≥2-fold increase in LDH leakage). […]
In general terms: LDH in the medium is a marker of cell lysis.

For the compound `CN(c1ncc(Cl)cn1)[C@H]1CCc2c(c3nc(F)ccc3n2CC(=O)O)C1` [COMPOUND in crystalline form 1, (S)-2-(8-((5-chloropyrimidin-2-yl)(methyl)amino)-2-fluoro-6,7,8,9-tetrahydro-5H-pyrido[3,2-b]indol-5-yl)acetic acid], in data set [1], the Hygroscopicity result is “Slightly hygroscopic (mass change larger”.
`CN(c1ncc(Cl)cn1)[C@H]1CCc2c(c3nc(F)ccc3n2CC(=O)O)C1` [COMPOUND, (S)-2-(8-((5-chloropyrimidin-2-yl)(methyl)amino)-2-fluoro-6,7,8,9-tetrahydro-5H-pyrido[3,2-b]indol-5-yl)acetic acid]: the IC50 in data set [2] was 3.1 nM. In data set [3], the “NoEC (no effect concentration)” value is greater than 300 µM and the “LCC (lowest cytotoxic concentration)” value is greater than 300 µM. In data set [3] (summary statement), the “properties in in-vitro cytotoxicity assay (in words)” value was “significantly improved properties”.
In the case of `CN(c1ncc(Cl)cn1)[C@H]1CCc2c(c3cc(F)ccc3n2CC(=O)O)C1` [example 9 from WO 2011/117798, reference compound], in data set [3], the “NoEC (no effect concentration)” value worked out at 30 µM and the “LCC (lowest cytotoxic concentration)” value is 300 µM.

The values are drawn from patent US10351560B2, “Crystalline forms” (IDORSIA PHARMACEUTICALS LTD, priority 2015, dated 2019).
